# Patent publication US5258406A, “Sulfonimidamides” (priority 1992, dated 1993)
# Where two headings read alike, the source gives them in different places.
# Tested on: 6C3HED lymphosarcoma
# Experiment: animal or person
# Assay type: in vivo
# Conditions: for inhibition in vivo at 100 mg/kg: read-out: % inhibition of tumor growth, oral, 100 mg/kg, BIDX 8
# Procedure: The compounds were tested in C3H mice bearing a 6C3HED lymphosarcoma, also known as the Gardner lymphosarcoma (GLS), and in a variety of human tumor xenografts in CD1 nu/nu mice, including CX-1, LX-1, HXGC3, and VRC5. The 6C3HED lymphosarcoma was obtained from the Division of Cancer Treatment, National […] Institute, Tumor Bank, maintained at E. G. and G. Mason Research (Worcester, Mass.). The CX-1 human colon carcinoma and the LX-1 human lung carcinoma xenografts were obtained from the National Cancer Institute. The HXGC3 and VRC5 human colon xenografts were obtained from Dr. P. J. Houghton, St. Jude Children's Hospital in Memphis (see Br. J. Cancer, 37, 213 (1978)). First passage tumor was stored in liquid nitrogen using standard techniques. The transplanted tumor was reestablished from the Tumor Bank every six months or as needed. The tumor was maintained by serial passage twice weekly in C3H mice.
# In the procedure the tumor was removed from passage animals and minced into 1- to 3-mm square fragments using sterile techniques. Tumor pieces were checked for sterility using both Antibiotic Medium 1 and Brain Heart Infusion (Difco, Detroit, Mich.). Recipient mice were shaved and tumor pieces were implanted subcutaneously in the auxiliary region by trocar. Drug therapy on the appropriate schedule was initiated on the day after tumor implant for 6C3HED and after a seven (7) day delay for xenografts (or other delay as noted in Table 2). The compound being tested was mixed with 2.5% Emulphor EL620 from GAF Corporation (1:40 dilution in saline). Food and water were provided ad libitium. The drug was administered orally in 0.5 ml of 2.5% Emulphor (unless otherwise indicated). The tumor was measured the day after treatment ended with two dimensional measurements (width and length) of the tumor taken using automated digital calipers interfaced to a microcomputer. Approximate weight for the tumor was calculated using the following formula [Worzalla, J. F., et al., Invest. New Drugs, 8, 241 (1990], (tumor weight in mg)=(width in mm)^2 ×(length in mm)/2.
# At least one control group of an equal number of mice was treated with the same volume of 2.5% Emulphor only. The percent inhibition was determined by subtracting the ratio of the mean tumor size of the test group relative to the control group from one and multiplying the result times 100.
# The results of several experiments in mice bearing a 6C3HED lymphosarcoma (or other tumor where indicated) when the indicated compounds were administered are provided in Table 2. In Table 2, column 1 gives the Example number of the compound used, column 2 lists the dose level in mg/kg, column 3 provides the percent inhibition of tumor growth, column 4 gives the number of mice which died relative to the total number of animals in the group, column 5 gives the method of administration of the compound, and column 6 gives the dosage schedule. The protocol used with other tumors was the same as with the 6C3HED lymphosarcoma.
# [1] = Mus musculus, 6C3HED, po, read-out: % inhibition of tumor growth, oral, 25 mg/kg, BIDX 8
# [2] = Mus musculus, 6C3HED, po, read-out: % inhibition of tumor growth, oral, 50 mg/kg, BIDX 8
# [3] = Mus musculus, 6C3HED, po, read-out: % inhibition of tumor growth, oral, 150 mg/kg, BIDX 8
# [4] = Mus musculus, 6C3HED, po, read-out: % inhibition of tumor growth, oral, 300 mg/kg, BIDX 8
# [5] = Mus musculus, 6C3HED, ip, read-out: % inhibition of tumor growth, IP, 150 mg/kg, DX 8
# [6] = Mus musculus, 6C3HED, ip, read-out: % inhibition of tumor growth, IP, 300 mg/kg, DX 8
# [7] = Mus musculus, 6C3HED, po, read-out: % inhibition of tumor growth, oral, 150 mg/kg, DX 8
# [8] = Mus musculus, 6C3HED, po, read-out: % inhibition of tumor growth, oral, 300 mg/kg, DX 8
compound,measurement,setting,value
"CCc1ccc(S(=N)(=O)NC(=O)Nc2ccc(Cl)cc2)cc1 (stereo not shown) [Example 33, N-[[(4-chlorophenyl)amino]carbonyl]-4-ethylbenzenesulfonimidamide]",inhibition in vivo at 6.25 mg/kg,"Mus musculus, 6C3HED, po, read-out: % inhibition of tumor growth, oral, 6.25 mg/kg, BIDX 8",36%
same,inhibition in vivo at 12.5 mg/kg,"Mus musculus, 6C3HED, po, read-out: % inhibition of tumor growth, oral, 12.5 mg/kg, BIDX 8",60%
same,inhibition in vivo at 25 mg/kg,[1],91%
same,inhibition in vivo at 50 mg/kg,[2],98%
same,inhibition in vivo at 100 mg/kg,"Mus musculus, 6C3HED, po",99%
same,inhibition in vivo at 150 mg/kg,[3],100%
same,inhibition in vivo at 300 mg/kg,[4],100%
same,Tox/Tot (mice which died / total),"oral, 6.25 mg/kg, BIDX 8",0/10
same,Tox/Tot (mice which died / total),"oral, 12.5 mg/kg, BIDX 8",0/9
same,Tox/Tot (mice which died / total),"oral, 25 mg/kg, BIDX 8",2/10
same,Tox/Tot (mice which died / total),"oral, 50 mg/kg, BIDX 8",1/10
same,Tox/Tot (mice which died / total),"oral, 100 mg/kg, BIDX 8",0/10
same,Tox/Tot (mice which died / total),"oral, 150 mg/kg, BIDX 8",8/10
same,Tox/Tot (mice which died / total),"oral, 300 mg/kg, BIDX 8",8/10
"CC(=O)N(C)S(=O)(=NC(=O)Nc1ccc(Cl)cc1)c1ccc(C)cc1 (stereo not shown) [Example 16, N-[[(4-chlorophenyl)amino]carbonyl]-N'-acetyl-N'-methyl-4-methylbenzenesulfonimidamide]",inhibition in vivo at 150 mg/kg,[3],98%
same,inhibition in vivo at 300 mg/kg,[4],99%
same,Tox/Tot (mice which died / total),"oral, 150 mg/kg, BIDX 8",1/10
same,Tox/Tot (mice which died / total),"oral, 300 mg/kg, BIDX 8",1/10
Cc1ccc(NC(=O)N=S(N)(=O)c2ccc(C)cc2)cc1 (stereo not shown) [Example 24],Tox/Tot (mice which died / total),"IP, 150 mg/kg, DX 8",0/10
same,Tox/Tot (mice which died / total),"IP, 300 mg/kg, DX 8",0/10
same,inhibition in vivo at 150 mg/kg,[5],31%
same,inhibition in vivo at 300 mg/kg,[6],52%
same,inhibition in vivo at 150 mg/kg,[7],10%
same,inhibition in vivo at 300 mg/kg,[8],40%
same,Tox/Tot (mice which died / total),"oral, 150 mg/kg, DX 8",0/10
same,Tox/Tot (mice which died / total),"oral, 300 mg/kg, DX 8",0/10
NS(=O)(=NC(=O)Nc1ccc(Cl)cc1)c1ccc(Cl)cc1 (stereo not shown) [Example 27],inhibition in vivo at 25 mg/kg,[1],39%
same,inhibition in vivo at 50 mg/kg,[2],80%
same,inhibition in vivo at 100 mg/kg,"Mus musculus, 6C3HED, po",100%
same,Tox/Tot (mice which died / total),"oral, 25 mg/kg, BIDX 8",0/10
same,Tox/Tot (mice which died / total),"oral, 50 mg/kg, BIDX 8",0/10
same,% inhibition of tumor growth,"oral, 100 mg/kg, BIDX 8",94%
same,% inhibition of tumor growth,"oral, 200 mg/kg, BIDX 8",TOX
same,Tox/Tot (mice which died / total),"oral, 200 mg/kg, BIDX 8",10/10
CNS(=O)(=NC(=O)Nc1ccc(Cl)cc1)c1ccc(C)c(C)c1 (stereo not shown) [Example 62],inhibition in vivo at 25 mg/kg,"Mus musculus, 6C3HED, po, read-out: % inhibition of tumor growth, oral, 25 mg/kg, DX 8",98%
same,inhibition in vivo at 50 mg/kg,"Mus musculus, 6C3HED, po, read-out: % inhibition of tumor growth, oral, 50 mg/kg, DX 8",99%
same,Tox/Tot (mice which died / total),"oral, 25 mg/kg, DX 8",0/10
same,Tox/Tot (mice which died / total),"oral, 50 mg/kg, DX 8",2/10
CC(=O)NS(=O)(=NC(=O)Nc1ccc(Cl)cc1)c1ccc(C)cc1 (stereo not shown) [Example 15],Tox/Tot (mice which died / total),"IP, 150 mg/kg, DX 8",0/10
same,% inhibition of tumor growth,"IP, 300 mg/kg, DX 8",TOX
same,Tox/Tot (mice which died / total),"IP, 300 mg/kg, DX 8",10/10
same,inhibition in vivo at 150 mg/kg,[5],0%
same,inhibition in vivo at 150 mg/kg,[3],0%
same,inhibition in vivo at 150 mg/kg,[7],23%
same,inhibition in vivo at 300 mg/kg,[4],84%
same,inhibition in vivo at 300 mg/kg,[8],44%
same,Tox/Tot (mice which died / total),"oral, 150 mg/kg, BIDX 8",0/10
same,Tox/Tot (mice which died / total),"oral, 150 mg/kg, DX 8",0/10
same,Tox/Tot (mice which died / total),"oral, 300 mg/kg, BIDX 8",0/10
same,Tox/Tot (mice which died / total),"oral, 300 mg/kg, DX 8",0/10
"N=S(=O)(NC(=O)Nc1ccc(Cl)cc1)c1ccc(C=O)cc1 (stereo not shown) [Example 51, N-[[(4-chlorophenyl)amino]carbonyl]-4-formylbenzenesulfonimidamide]",Tox/Tot (mice which died / total),"IP, 150 mg/kg, DX 8",0/10
same,Tox/Tot (mice which died / total),"IP, 300 mg/kg, DX 8",9/10
same,inhibition in vivo at 150 mg/kg,[5],80%
same,inhibition in vivo at 300 mg/kg,[6],99%
"CN=S(=O)(NC(=O)Nc1ccc(Cl)cc1)c1ccc2c(c1)CCC2 (stereo not shown) [Example 55, N-[[(4-chlorophenyl)amino]carbonyl]-N'-methyl-5-indanylsulfonimidamide]",inhibition in vivo at 75 mg/kg,"Mus musculus, 6C3HED, po, read-out: % inhibition of tumor growth, oral, 75 mg/kg, BIDX 8",70%
same,inhibition in vivo at 150 mg/kg,[3],75%
same,Tox/Tot (mice which died / total),"oral, 75 mg/kg, BIDX 8",0/10
same,Tox/Tot (mice which died / total),"oral, 150 mg/kg, BIDX 8",1/10
